Reference: patent US20240182531A1, “KV1.3 Blockers” (priority 2021, published 2024)
Like-named read-outs stand apart in the source and are kept apart here. Where a SMILES comes first, the peptide text is derived from it. Bridges are numbered along the chain shown (N, C = ends). [ ]: non-standard residue; d: D form. Nle = CCCC[C@H](N)C(=O)O

What was measured:
human Kv1.1 = biological target: T1, human Kv1.1 (Homo sapiens, UniProt Q09470); assay: cell-based
T1 construct: expressed in transfected cells; host or cells: CHO
T1 sequence (Q09470 whole entry): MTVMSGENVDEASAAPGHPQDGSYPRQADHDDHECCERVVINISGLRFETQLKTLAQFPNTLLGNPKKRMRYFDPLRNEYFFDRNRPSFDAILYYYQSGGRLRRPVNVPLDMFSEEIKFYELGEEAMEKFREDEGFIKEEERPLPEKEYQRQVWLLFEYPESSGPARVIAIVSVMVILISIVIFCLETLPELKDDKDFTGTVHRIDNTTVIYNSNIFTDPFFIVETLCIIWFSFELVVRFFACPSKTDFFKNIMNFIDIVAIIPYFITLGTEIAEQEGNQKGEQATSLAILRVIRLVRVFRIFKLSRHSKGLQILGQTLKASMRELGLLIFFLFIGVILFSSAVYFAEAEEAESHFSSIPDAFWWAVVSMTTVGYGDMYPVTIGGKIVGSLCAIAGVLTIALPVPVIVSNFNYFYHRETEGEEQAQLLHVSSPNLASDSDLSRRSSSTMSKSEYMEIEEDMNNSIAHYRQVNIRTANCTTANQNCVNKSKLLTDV

human Kv1.6 = biological target: T2, human Kv1.6 (Homo sapiens, UniProt P17658); assay: cell-based
T2 construct: expressed in transfected cells; host or cells: CHO
T2 sequence (P17658 whole entry): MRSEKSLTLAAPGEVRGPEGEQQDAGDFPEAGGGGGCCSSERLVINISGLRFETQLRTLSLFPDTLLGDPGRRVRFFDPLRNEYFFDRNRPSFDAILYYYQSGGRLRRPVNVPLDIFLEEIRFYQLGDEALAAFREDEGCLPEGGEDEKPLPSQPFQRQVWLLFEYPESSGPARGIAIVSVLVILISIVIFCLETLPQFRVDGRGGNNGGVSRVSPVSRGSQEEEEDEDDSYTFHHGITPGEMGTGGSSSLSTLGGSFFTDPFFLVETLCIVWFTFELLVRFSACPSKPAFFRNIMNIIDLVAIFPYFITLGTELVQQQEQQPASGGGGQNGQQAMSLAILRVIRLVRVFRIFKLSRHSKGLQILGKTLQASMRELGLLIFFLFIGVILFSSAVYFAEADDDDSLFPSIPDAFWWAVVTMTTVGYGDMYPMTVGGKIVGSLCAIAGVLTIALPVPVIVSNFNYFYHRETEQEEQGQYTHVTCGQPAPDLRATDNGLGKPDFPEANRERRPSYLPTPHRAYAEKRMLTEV

human Kv1.2 = biological target: T3, human Kv1.2 (Homo sapiens, UniProt P16389); assay: cell-based
T3 construct: expressed in transfected cells; host or cells: CHO
T3 sequence (P16389 whole entry): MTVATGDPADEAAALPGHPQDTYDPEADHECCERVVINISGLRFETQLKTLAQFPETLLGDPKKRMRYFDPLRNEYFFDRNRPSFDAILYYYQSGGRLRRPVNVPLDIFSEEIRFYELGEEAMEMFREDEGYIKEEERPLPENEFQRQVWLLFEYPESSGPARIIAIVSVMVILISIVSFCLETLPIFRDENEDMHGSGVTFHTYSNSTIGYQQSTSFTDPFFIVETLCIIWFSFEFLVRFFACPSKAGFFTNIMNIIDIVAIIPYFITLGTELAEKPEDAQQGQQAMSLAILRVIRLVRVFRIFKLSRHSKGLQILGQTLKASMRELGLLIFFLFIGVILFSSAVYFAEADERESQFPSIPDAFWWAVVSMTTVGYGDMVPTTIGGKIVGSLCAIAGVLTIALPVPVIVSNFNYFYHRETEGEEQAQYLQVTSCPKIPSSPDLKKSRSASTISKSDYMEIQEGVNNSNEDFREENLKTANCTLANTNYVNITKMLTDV

Rat whole blood = Rat whole blood (Rattus norvegicus, UniProt P15384); format: cell-based
Rat whole blood, sequence (P15384 whole entry): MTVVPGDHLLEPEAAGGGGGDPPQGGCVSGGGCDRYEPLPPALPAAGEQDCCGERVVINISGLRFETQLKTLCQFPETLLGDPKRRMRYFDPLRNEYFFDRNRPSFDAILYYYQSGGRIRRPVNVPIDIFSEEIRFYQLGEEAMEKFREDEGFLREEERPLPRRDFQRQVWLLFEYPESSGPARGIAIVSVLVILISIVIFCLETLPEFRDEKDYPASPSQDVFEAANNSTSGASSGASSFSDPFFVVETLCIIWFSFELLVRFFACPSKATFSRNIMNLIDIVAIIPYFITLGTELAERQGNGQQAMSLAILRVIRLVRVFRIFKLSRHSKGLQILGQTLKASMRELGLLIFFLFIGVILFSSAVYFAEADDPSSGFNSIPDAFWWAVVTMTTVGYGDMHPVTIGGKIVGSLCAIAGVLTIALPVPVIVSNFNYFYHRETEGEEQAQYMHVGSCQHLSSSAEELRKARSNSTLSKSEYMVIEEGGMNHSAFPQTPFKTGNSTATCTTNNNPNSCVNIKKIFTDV

[1] = ratio of patch clamp IC50 values
[2] = IL-17A release, thapsigargin, 24 Hr, at least 2 replicates

Row | Structure (SMILES) | Selectivity ratio Kv1.1/Kv1.3 (human Kv1.1; [1]) | Selectivity ratio Kv1.6/Kv1.3 (human Kv1.6; [1]) | Selectivity ratio Kv1.2/Kv1.3 (human Kv1.2; [1]) | IC50 (Rat whole blood; [2]) [nM] | Selectivity ratio Kv1.1/Kv1.3 (human Kv1.1) | Selectivity ratio Kv1.6/Kv1.3 (human Kv1.6) | Selectivity ratio Kv1.2/Kv1.3 (human Kv1.2) | IC50 (Rat whole blood) [nM]
1 | CCCC[C@H](NC(=O)[C@H](CC(=O)O)NC(=O)[C@H](CCCC)NC(=O)[C@@H](N)CO)C(=O)N[C@@H](CCCNC(=N)N)C(=O)N[C@H]1CSSC[C@@H]2NC(=O)[C@H](CCCCN)NC(=O)CNC(=O)[C@H](Cc3ccccc3)NC(=O)[C@H]([C@@H](C)CC)NC(=O)[C@H](CO)NC(=O)CNC(=O)[C@H]([C@@H](C)CC)NC(=O)[C@H](C)NC(=O)[C@H](CCCCN)NC(=O)[C@H](CC(C)C)NC(=O)[C@@H]3CSSC[C@@H](C(=O)N[C@@H](Cc4ccc(O)cc4)C(=O)N4CCC[C@H]4C(=O)N[C@@H](CCCNC(=N)N)C(N)=O)NC(=O)[C@H](CCCCN)NC(=O)[C@H](CSSC[C@H](NC(=O)[C@H](CCC(=O)O)NC(=O)[C@H](C(C)C)NC(=O)[C@H](CO)NC(=O)[C@H](C)NC(=O)[C@H](CO)NC1=O)C(=O)NCC(=O)N[C@@H](CCC(N)=O)C(=O)N[C@@H](CCCCN)C(=O)N3)NC(=O)[C@H](CCCCN)NC(=O)[C@H](CCCCN)NC(=O)[C@H](CC(N)=O)NC(=O)[C@H](CCSC)NC2=O [compound 71] (H-S[Nle]D[Nle]RCSASVECGQKCLKAIGSIFGKCMNKKCKCYPR-NH2; disulfide 6-27, 12-32, 16-34) | >27700 | >27700 | 3438 | 0.3 |  |  |  | 
2 | CCCC[C@H](NC(=O)[C@@H](N)CO)C(=O)N[C@@H](CC(=O)O)C(=O)N[C@@H](CCC(=O)O)C(=O)N[C@@H](CCCNC(=N)N)C(=O)N[C@H]1CSSC[C@@H]2NC(=O)[C@H](CCCCN)NC(=O)CNC(=O)[C@H](Cc3ccccc3)NC(=O)[C@H]([C@@H](C)CC)NC(=O)[C@H](CO)NC(=O)CNC(=O)[C@H]([C@@H](C)CC)NC(=O)[C@H](C)NC(=O)[C@H](CCCCN)NC(=O)[C@H](CC(C)C)NC(=O)[C@@H]3CSSC[C@@H](C(=O)N[C@@H](Cc4ccc(O)cc4)C(=O)N4CCC[C@H]4C(=O)N[C@@H](CCCNC(=N)N)C(N)=O)NC(=O)[C@H](CCCCN)NC(=O)[C@H](CSSC[C@H](NC(=O)[C@H](CCC(=O)O)NC(=O)[C@H](C(C)C)NC(=O)[C@H](CO)NC(=O)[C@H](C)NC(=O)[C@H](CO)NC1=O)C(=O)N[C@@H](CCCCN)C(=O)N[C@@H](CCC(N)=O)C(=O)N[C@@H](CCCCN)C(=O)N3)NC(=O)[C@H](CCCCN)NC(=O)[C@H](CCCCN)NC(=O)[C@H](CC(N)=O)NC(=O)[C@H](CCSC)NC2=O [compound 76] (H-S[Nle]DERCSASVECKQKCLKAIGSIFGKCMNKKCKCYPR-NH2; disulfide 6-27, 12-32, 16-34) | >10600 | >10600 | 430 | 0.55 |  |  |  | 
3 | CCCC[C@@H]1NC(=O)[C@@H]2CSSC[C@H](NC(=O)[C@H](CCCNC(=N)N)NC(=O)[C@H](CCCC)NC(=O)[C@H](CC(=O)O)NC(=O)[C@@H](N)CCCC)C(=O)N[C@@H](CO)C(=O)N[C@@H](C)C(=O)N[C@@H](CO)C(=O)N[C@@H](C(C)C)C(=O)N[C@@H](CCC(=O)O)C(=O)N[C@H]3CSSC[C@H](NC(=O)[C@H](CCCCN)NC(=O)[C@H](CCCCN)NC(=O)[C@H](CC(N)=O)NC1=O)C(=O)N[C@@H](CCCCN)C(=O)N[C@H](C(=O)N[C@@H](Cc1ccc(O)cc1)C(=O)N1CCC[C@H]1C(=O)N[C@@H](CCCNC(=N)N)C(=O)O)CSSC[C@H](NC(=O)[C@H](CCCCN)NC(=O)[C@H](CCC(N)=O)NC(=O)[C@H](CCCCN)NC3=O)C(=O)N[C@@H](CC(C)C)C(=O)N[C@@H](CCCCN)C(=O)N[C@@H](C)C(=O)N[C@@H]([C@@H](C)CC)C(=O)NCC(=O)N[C@@H](CO)C(=O)N[C@@H]([C@@H](C)CC)C(=O)N[C@@H](Cc1ccccc1)C(=O)NCC(=O)N[C@@H](CCCCN)C(=O)N2 [compound 90] (H-[Nle]D[Nle]RCSASVECKQKCLKAIGSIFGKC[Nle]NKKCKCYPR-OH; disulfide 5-26, 11-31, 15-33) | >17800 | >17800 | 11034 | 0.55 |  |  |  | 
4 | CCCC[C@@H]1NC(=O)[C@@H]2CSSC[C@H](NC(=O)[C@H](CCCNC(=N)N)NC(=O)[C@H](CCCC)NC(=O)[C@H](CCC(=O)O)NC(=O)[C@@H](NC(=O)[C@@H]3CCCN3)[C@@H](C)CC)C(=O)N[C@@H](CO)C(=O)N[C@@H](C)C(=O)N[C@@H](CO)C(=O)N[C@@H](C(C)C)C(=O)N[C@@H](CCC(=O)O)C(=O)N[C@H]3CSSC[C@H](NC(=O)[C@H](CCCCN)NC(=O)[C@H](CCCCN)NC(=O)[C@H](CC(N)=O)NC1=O)C(=O)N[C@@H](CCCCN)C(=O)N[C@H](C(=O)N[C@@H](Cc1ccc(O)cc1)C(=O)N1CCC[C@H]1C(=O)N[C@@H](CCCNC(=N)N)C(=O)O)CSSC[C@H](NC(=O)[C@H](CCCCN)NC(=O)[C@H](CCC(N)=O)NC(=O)[C@H](CCCCN)NC3=O)C(=O)N[C@@H](CC(C)C)C(=O)N[C@@H](CCCCN)C(=O)N[C@@H](C)C(=O)N[C@@H]([C@@H](C)CC)C(=O)NCC(=O)N[C@@H](CO)C(=O)N[C@@H]([C@@H](C)CC)C(=O)N[C@@H](Cc1ccccc1)C(=O)NCC(=O)N[C@@H](CCCCN)C(=O)N2 [compound 92] (H-PIE[Nle]RCSASVECKQKCLKAIGSIFGKC[Nle]NKKCKCYPR-OH; disulfide 6-27, 12-32, 16-34) |  |  |  |  | >7800 | >7800 | 4561 | 1.8
5 | CCCC[C@@H]1NC(=O)[C@@H]2CSSC[C@H](N)C(=O)N[C@@H](CO)C(=O)N[C@@H](C)C(=O)N[C@@H](CO)C(=O)N[C@@H](C(C)C)C(=O)N[C@@H](CCC(=O)O)C(=O)N[C@H]3CSSC[C@H](NC(=O)[C@H](CCCCN)NC(=O)[C@H](CCCCN)NC(=O)[C@H](CC(N)=O)NC1=O)C(=O)N[C@@H](CCCCN)C(=O)N[C@H](C(=O)N[C@@H](Cc1ccc(O)cc1)C(=O)N1CCC[C@H]1C(=O)N[C@@H](CCCNC(=N)N)C(N)=O)CSSC[C@H](NC(=O)[C@H](CCCCN)NC(=O)[C@H](CCC(N)=O)NC(=O)[C@H](CCCCN)NC3=O)C(=O)N[C@@H](CC(C)C)C(=O)N[C@@H](CCCCN)C(=O)N[C@@H](C)C(=O)N[C@@H]([C@@H](C)CC)C(=O)NCC(=O)N[C@@H](CO)C(=O)N[C@@H]([C@@H](C)CC)C(=O)N[C@@H](Cc1ccccc1)C(=O)NCC(=O)N[C@@H](CCCCN)C(=O)N2 [compound 98] (H-CSASVECKQKCLKAIGSIFGKC[Nle]NKKCKCYPR-NH2; disulfide 1-22, 7-27, 11-29) | >7000 | >7000 | >7000 | 1.6 |  |  |  | 
6 | CCCC[C@@H]1NC(=O)[C@@H]2CSSC[C@H](NC(C)=O)C(=O)N[C@@H](CO)C(=O)N[C@@H](C)C(=O)N[C@@H](CO)C(=O)N[C@@H](C(C)C)C(=O)N[C@@H](CCC(=O)O)C(=O)N[C@H]3CSSC[C@H](NC(=O)[C@H](CCCCN)NC(=O)[C@H](CCCCN)NC(=O)[C@H](CC(N)=O)NC1=O)C(=O)N[C@@H](CCCCN)C(=O)N[C@H](C(=O)N[C@@H](Cc1ccc(O)cc1)C(=O)N1CCC[C@H]1C(=O)N[C@@H](CCCNC(=N)N)C(N)=O)CSSC[C@H](NC(=O)[C@H](CCCCN)NC(=O)[C@H](CCC(N)=O)NC(=O)[C@H](CCCCN)NC3=O)C(=O)N[C@@H](CC(C)C)C(=O)N[C@@H](CCCCN)C(=O)N[C@@H](C)C(=O)N[C@@H]([C@@H](C)CC)C(=O)NCC(=O)N[C@@H](CO)C(=O)N[C@@H]([C@@H](C)CC)C(=O)N[C@@H](Cc1ccccc1)C(=O)NCC(=O)N[C@@H](CCCCN)C(=O)N2 [compound 99] (Ac-CSASVECKQKCLKAIGSIFGKC[Nle]NKKCKCYPR-NH2; disulfide 1-22, 7-27, 11-29) | >12400 | >12400 | 1591 | 0.88 |  |  |  | 
